# Test results taken from patent US5914242A, “Method for diminishing myocardial infarction using protein phosphatase inhibitors” (priority 1997, dated 1999).
# “Also recorded” adds a separate entry of the source.
# Key:
# [1] = tested on: protein phosphatase type 1 (PP1); assay: Protein phosphatase inhibition assay, purified catalytic subunit, [32P]-phosphohistone or phosphorylase a substrate; format: biochemical
# Protocol: (§1) FIG. 4: Effect of fostriecin on the activity of protein phosphatase type 1 (PP1) and protein phosphatase type 2A (PP2A). The activity of the purified catalytic subunits of PP1 (Δ,s) or PP2A (O,1) was assayed in the presence of the indicated amount of fostriecin. The inhibition assays employed freshly prepared [^32 P]-phosphohistone (open symbols) or [^32 P]phosphorylase A (filled symbols) as substrate and highly purified catalytic subunits of PP1 or PP2A. Assays were conducted in a total volume of 80 μl, and the indicated amount of fostriecin was added to the assay 10 minutes prior to initiation of the reaction by the addition of substrate. Each point represents the mean ± SE (n>6).
# (§2) Determination of protein phosphatase activity: Protein phosphatase activity against phosphohistone was determined by the quantification of liberated [^32 P] from phosphohistone according to previously established methods (see Honkanen et al., J. Biol. Chem. 265:19401-04 (1990); Honkanen et al., Mol. Pharmacol. 40:577-83 (1991); and Critz and Honkanen, Neuroprotocols 6:78-83 (1995)). Assays (80 μl final volume) were conducted in 50 mM Tris-buffer (pH 7.4) containing 0.5 mM DTT, 4 mM EDTA, and phosphoprotein (2 μM PO4). The assay was initiated by the addition of substrate (30 μl) to a 1.5 ml microfuge tube containing 50 μl of dilute homogenate. Assays were conducted at 30° C. for 10 minutes and were stopped by the addition of 100 μl of 1N H2 SO4 containing 1 mM K2 HPO4. [^32 P]Phosphate liberated by the enzyme was then extracted as a phosphomolybdate complex and measured according to the methods of Killilea et al., Arch. Biochem. Biophys. 191:638-46 (1978)). Briefly, free phosphate was extracted by adding 20 μl of ammonium molybdate (7.5% w/v in 1.4 N H2 SO4) and 250 μl of isobutanol:benzine (1:1, v/v) to each tube. The tubes were mixed vigorously for approximately 10 seconds followed by centrifugation at 14,000×g for 2 minutes. Aliquots of the upper phase (100 μl) were removed for counting, and radioactivity was quantified with a scintillation counter.
# (§3) For inhibition studies, the indicated amount of fostriecin or okadaic acid was added to the enzyme mixture 10 minutes before the reaction was initiated with the addition of substrate. Controls received solvent alone, and in all experiments the amount of enzyme was diluted to ensure that the samples were below the titration endpoint. The titration endpoint is defined as the concentration of enzyme after which further dilution no longer affects the IC50 of the toxin, and represents a point where the concentration of enzyme used in the assay no longer approaches that of the toxin. This ensures that IC50 represents the potency of the inhibitor alone and is not representative of a combination of potency of the toxin and titration artifacts of the assay system. Preliminary assays were also performed to ensure the dephosphorylation reaction was linear with respect to enzyme concentration and time.
# (§4) The catalytic subunit of PP2A was purified to apparent homogeneity according to established methods as described by Pallas et al., Cell 60:167-176 (1990) using G-75 Sephadex in the place of Ultrogel-AcA44 as previously reported in Brautigan et al., J. Biol. Chem. 260:4295-02 and Honkanen et al., Mol. Pharmacol 40:577-83 (1991). PP1 and PP2A both are now also available from several commercial sources.
# [2] = tested on: protein phosphatase type 2A (PP2A); assay: as above; format: biochemical
# Protocol: as §1, §2, §3, §4
# PP1/PP2A-chimera (CRHM2) = assay: Inhibition of recombinant PP1/PP2A chimera; format: biochemical, human PP1 / bovine PP2A
# Protocol: FIG. 6: Sequence of a PP1/PP2A chimera. To characterize the fostriecin binding site, the N-terminal region of PP1 was ligated to the C-terminal region of PP2A (in bold) to produce a PP1/PP2A-chimera (CRHM2). Previous studies indicate that the okadaic acid binding domain is contained in the C-terminal region of PP2A that was incorporated into CRHM2.
# FIG. 7: Effect of fostriecin and okadaic acid on the activity of recombinant CRHM2. CRHM2 activity was assayed in the presence of the indicated amount of fostriecin (FIG. 7A) or okadaic acid (FIG. 7B). […] Assays were conducted as described in FIG. 5. Each point represents the mean ± SE (n>6).
# PP1, an enzyme highly homologous to PP2A, could be expressed in a stable manner and in relatively large amounts. Thus, human PP1 was cloned and subcloned into a bacterial expression vector as was done for PP2A. […] To create a hybrid enzyme (a PP1/PP2A chimera) that could be expressed stably like rPP1 but would bind okadaic acid with high affinity like PP2A, a number of mutant forms of PP1 and PP2A were constructed. Then, through mutational analysis, the okadaic acid binding domain of PP2A was identified. The okadaic acid binding domain from PP2A was cloned behind the amino terminal domain of PP1. The hybrid, referred to as CRHM-2, was subcloned into an expression vector. Restriction analysis of CRHM-2 confirmed the identity of the construct.
# In these studies, the bacterial expressed PP1/PP2A hybrid enzyme was produced by growing appropriate strains of transformed E. coli at 18° C. for 48 hours in LB-media containing 50 μg/ml ampicillin, 1 mM MnCl2, and 50 μM IPTG. The bacteria were lysed with a French Press, and after centrifugation at 15,000×g for 45 min, the phosphatase was partially purified via ion-exchange [High Q (BioRad) and MonoQ (Pharmacia)] and affinity [Heparin-Sepharose (Pharmacia)] chromatography. The sensitivity of the chimera to fostriecin was determined employing the same protein phosphatase assay employed with endogenous PP1 or PP2A, with the addition of MnCl2 (1 mM) to the assay buffer.
# [3] = tested on: alkaline protein phosphatase; assay: Effect on alkaline protein phosphatase; format: biochemical
# acid phosphatase = assay: Effect on acid phosphatase; format: biochemical
# [4] = phosphohistone and phosphorylase-a substrates
compound,measurement,setting,value
CC(O)(/C=C/C1CC=CC(=O)O1)C(CC(O)\C=C/C=C\C=C\CO)OP(=O)(O)O (stereo not drawn) [fostriecin],effect on PP1 at the protective concentration,[1]; 1-10 μM fostriecin,no direct effect; also recorded: minor effect
same,inhibition of PP1 catalytic subunit,[1]; [4],inhibited by fostriecin in a dose-dependent manner
same,inhibition of PP2A at the protective concentration,[2]; 1-10 μM fostriecin,inhibits the activity of PP2A; also recorded: inhibits PP2A completely
same,inhibition of PP2A catalytic subunit,[2]; [4],inhibited by fostriecin in a dose-dependent manner
same,concentration inhibiting PP2A relative to PP1,[2]; purified catalytic subunits,at a lower concentration than PP1
same,sensitivity / potency of inhibition of the chimera,"PP1/PP2A-chimera (CRHM2); [32P]-phosphohistone, 1 mM MnCl2 in assay buffer",sensitive
same,binding affinity to the recombinant hybrid enzyme,PP1/PP2A-chimera (CRHM2); enzyme printed as rPP2Ac-1,affinity comparable to that of PP1
same,effect on alkaline protein phosphatase,[3],no effect
same,effect on acid phosphatase,acid phosphatase,no effect
